Laboratory results published in patent US12186348B2, “Glycan strands and oligosaccharides derived from Streptococcus bacteria” (Meharry Medical College, priority 2018, dated 2025).

Columns and labels:
[1] = system: A3G; experiment: A3G mRNA expression in THP-1 cells by qRT-PCR; type: cell-based, human
Procedure: Equal volumes of an S. cristatus CC5A whole cell extract (CC5A1E), fraction A (glycan strands and peptides), fraction B (glycan strands), and CC5Ap were used to treat THP-1 cells for 16 hours. THP-1 cell line is a human monocytic cell line derived from acute monocytic leukemia. The THP-1 cells were obtained from the NIH AIDS Reagent Program. qRT-PCR was used to detect the relative expression of A3G mRNA in THP-1 cells. PBS treated THP-1 cells were used as a control.
The cell wall of S. Mu was isolated from the bacteria and the isolated cell wall was subjected to the cell component isolation shown in FIG. 2A. Oligosaccharide molecules (from the same amount of bacteria) of CC5Ap and S. Mu were used to treat THP-1 cells. The THP-1 cells were obtained from the NIH AIDS Reagent Program. PBS and CC5A/E were used as the controls. A3G expression was measured by qRT-PCR.
(§1) To determine whether CC5Ap induces MX2 expression, THP-1 cells were treated with different doses (units) of CC5Ap for 16 hours. The THP-1 cells were obtained from the NIH AIDS Reagent Program. One unit of CC5Ap is defined as the amount of CC5Ap needed to induce a 3-fold increase in A3G mRNA expression over a period of 16 hours, using 5×10^5 THP-1 cells in 500 μl of cell culture medium. MX2 expression was measured by qRT-PCR. After treatment the cells were either subjected to measuring MX2 expression by Western-blot analyses or infected with HIV-1.
(§2) Synthetic G-M from Toronto Research Chemicals (Cat: A178230) was purchased. The synthetic G-M structure was confirmed by 1H NMR (D2O) and MS. Different doses of G-M were used to treat THP-1 cells. The THP-1 cells were obtained from the NIH AIDS Reagent Program. Specifically, 50 μg, 100 μg, 200 μg and 300 μg/ml G-M (shown in FIGS. 8A-8C as G-M 0.5, 1, 2, 3, respectively) were used to treat THP-1 cells. 1 unit CC5A A/E and CC5Ap were used as the controls. The cells were treated overnight. The mRNA levels of A3G and MX2 were measured by qRT-PCR.

[2] = system: MX2; experiment: MX2 expression in THP-1 cells (qRT-PCR, Western-blot); type: cell-based, human; settings: THP-1 cells, 50, 100, 200, 300 μg/ml, overnight (FIG. 8B)
Procedure: as §1, §2

[3] = system: HIV IIIB; experiment: HIV IIIB replication in THP-1 cells, nine days culture; type: cell-based; settings: THP-1 cells pre-treated 1 hour, qRT-PCR (FIG. 8C)
Procedure: To determine whether G-M inhibits HIV IIIB replication, THP-1 cells were pre-treated 1 hour with G-M or CC5Ap. 100 ng […] content of IIIB was added into the cell culture to infect the cells overnight. Post-infection, cells were washed 2 times and cultured for nine days. The viral supernatant was subjected to qRT-PCR to measure viral release.

[4] = system: THP-1 cells; experiment: Cell number of G-M treated THP-1 samples; type: cell-based, human
[5] = system: Vpr-BlaM containing HIV NL4-3 virus; experiment: HIV-1 viral entry assay (Vpr-BlaM, CCF2) in THP-1 cells; type: cell-based; settings: THP-1 cells pre-treated overnight, compared to untreated control (FIGS. 12, 14)
Text: To determine whether the disclosed molecules have effects on HIV-1 viral entry, a sensitive and specific enzyme-based assay developed by Marielle et al (6) was used. THP-1 cells were pre-treated with AMD3100 (HIV entry inhibitor), CC5A/PBS (cell lysate of Streptococcus Cristatus CC5A), and different amounts of G-M (GlcNAc-MurNAc, which is a disaccharide molecule of glycan strain) overnight. PBS treated THP-1 cells were used as the untreated control. After washing, Vpr-BlaM containing HIV NL4-3 virus was used to infect the cells. After washing again, the cells were subjected to CCF2 staining overnight. The following day, the cells were analyzed by FACSAria III for CCF2 (green/FITC-A) and cleaved CCF2 (DAPI-A) florescence.
THP-1 cells were treated with CC5Ap and with cell lysate from Streptococcus Mutant (S. MuP). The protocol described in Example 10 was followed to test the effects of CC5Ap and S.MuP on HIV viral entry.

CC(=O)N[C@H]1[C@H](O[C@H]2[C@H](O[C@H](C)C(=O)O)[C@@H](NC(C)=O)C(O)O[C@@H]2CO)O[C@H](CO)[C@@H](O)[C@@H]1O (stereo partly drawn) [G-M, N-Acetyl-D-glucosamine-(1-4)-N-acetylmuramic acid]
experimentally determined activity of synthetic G-M ([1]; 1 unit = amount inducing 3-fold A3G mRNA increase in 16 hours, 5×10^5 THP-1 cells in 500 μl): 0.005 units/μg | A3G mRNA expression ([1]; THP-1 cells, 50, 100, 200, 300 μg/ml, overnight (FIG. 8A)): enhanced A3G mRNA expression (FIG. 8A) and MX2 mRNA expression (FIG. 8B) in a dose-dependent manner | share of the total CC5Ap activity ([1]; based on G-M concentration of CC5Ap prep (about 100 μg/mL) and activity of synthetic G-M): about 5% | MX2 mRNA expression [2]: enhanced A3G mRNA expression (FIG. 8A) and MX2 mRNA expression (FIG. 8B) in a dose-dependent manner | HIV IIIB replication (viral release) [3]: inhibits HIV IIIB replication in a dose-dependent manner | noticeable cell number difference between PBS and treated samples [4]: not observed | relative HIV entry [5]: reduced HIV entry dramatically
